{
  "source": "paper PMC11899342",
  "about": "“Novel Triazeneindole Antibiotics: Synthesis and Hit-to-Lead Optimization” (International Journal of Molecular Sciences, 2025)",
  "key": {"[1]": {"test_system": "MRSA", "experiment": "Selectivity index (average IC50 on eukaryotic cells / average MIC on MRSA)", "format": "cell-based, Staphylococcus aureus", "settings": "average IC50 on eukaryotic cells divided by average MIC on MRSA", "description": "The selectivity index was calculated for each compound as the average IC50 on eukaryotic cells divided by the average MIC on MRSA (Table 2)."}, "[2]": {"test_system": "MRSA clinical isolates", "experiment": "MIC by broth microdilution against multidrug-resistant MRSA clinical isolates", "format": "cell-based, Staphylococcus aureus", "settings": "for MIC Range Against 8 MRSA Strains: 8 multidrug-resistant MRSA clinical isolates, tested 0.125-1 mg/L; for MIC: Staphylococcus aureus, MRSA, read-out: MIC against 8 MRSA strains", "description": "Clinical MRSA isolates with multidrug resistance were obtained from the collection of the Research Institute of Antimicrobial Chemotherapy, Smolensk State Medical Academy.\nThe MICs were determined using a broth microdilution method according to [42]. Briefly, serial dilutions of the tested compounds in 50 µL of Mueller Hinton broth (BD) were prepared in 96-well microplates. The antibiotics vancomycin and linezolid (Sigma-Aldrich, St. Louis, MO, USA) were used as a positive control. Bacterial suspensions of the tested MRSA strains were prepared in the Mueller Hinton broth (BD) with a concentration 1 × 10^6 CFU/mL, and then 50 µL aliquots were added to the prepared microplates. The final concentrations of the antibiotics in the wells were 1, 0.5, 0.25, and 0.125 mg/L, for the tested compounds, and 2 mg/L for vancomycin and linezolid. Negative control (lack of bacterial cells) and growth control (lack of compound) wells were included in all plates. The microplates were incubated at 37 °C for 18 h. The growth was assessed visually after incubation, and the MIC was assumed as the lowest compound concentration at which a noticeable growth of the microorganisms was inhibited (no visible growth). All experiments were conducted in triplicate."}, "[3]": {"test_system": "human embryonic fibroblasts (HEFs)", "experiment": "MTT cytotoxicity on human embryonic fibroblasts", "format": "cell-based", "settings": "24 h, ND = non-toxic in tested concentrations (up to 50 mg/L); for IC50: Homo sapiens, Fibroblast", "description": "(§1) The primary screening of 22 substances was performed on human embryonic fibroblasts (HEFs). […] The HepG2 cell line was obtained from the American Type Culture Collection (ATCC cat. # HB-8065). The primary HEF cells (normal human embryonic fibroblasts) were derived from human embryonic stem cells. The cells were cultured in DMEM/F12 (1:1) medium containing 10% fetal bovine serum (Invitrogen, Carlsbad, CA, USA) at 37 °C and 5% CO2, according to standard mammalian tissue culture protocols and sterile technique. […] The incubation time with the substance was 24 h for all substances and cell lines. Cell detachment by trypsin, centrifugation, and counting in a hemocytometer were performed 16 h before the addition of the substance. For correct counting of the HepG2 cells, the cell suspension was passed through a syringe needle to get rid of cell aggregates. The cells were placed in the wells of a 96-well plate. The number of cells was selected according to the properties of the cell line and the final optical density in the experiment. Fibroblasts and hepatocytes were used in the amount of 10 thousand cells per well in 100 μL of DMEM/F12 medium supplemented with 10% fetal bovine serum. The substances were added to 100 µL of medium in the wells so that the final concentrations were 50, 25, 12.5, 6.25, 3.125, and 1.62 mg/L. The final well volume was 200 µL. The medium containing fetal bovine serum, without added substances, was used as a negative control. After 24 h, excessive amounts of medium were discarded. A total of 30 µL of MTT solution (5 mg/mL in PBS) was added to each well. After the precipitation of formazan crystals (3 h incubation), they were dissolved using 100 μL of dimethyl sulfoxide. The optical density (OD) was measured at 570 nm using a microplate reader (Eppendorf). For every condition, the cell viabilities were assessed in at least three independent experiments for every cell culture. Cell survival was calculated using the following formula:(OD of treated cells − OD blank)/(OD of control cells − OD blank) × 100%, where OD blank represents the OD values in wells without cells but with the addition of the MTT and DMSO solutions. The results were presented in the form of cytotoxicity curves, and the graphs were also plotted in a Microsoft Excel program; the calculation of the IC50 half-maximal inhibition concentration values was performed in a GraphPad Prism 6.0 (GraphPad Software Inc., San Diego, CA, USA) program, based on the equations of the cytotoxicity curves."}, "[4]": {"experiment": "Solubility in water by HPLC", "format": "physicochemical", "settings": "for solubility at 5 min: water, kinetic from dmso stock", "description": "The solubility of the compounds in water was assessed using HPLC analysis. Two 1.0 mg portions of the test compounds were dissolved in 10 μL of dimethyl sulfoxide; 1.0 mL of acetonitrile was added to one sample (standard), and 1.0 mL of water was added to the second sample (tested sample). Both vials were mixed in a shaker for 5 min, then centrifuged at 10,000 rpm for 5 min. The supernatants were collected and analyzed using Agilent 1290 Infinity (Agilent Technologies, Santa Clara, CA, USA) with a YMC-Triart C18 50 × 2.0 mm, 1.9 μm column. The concentration of the test compound in water was determined by comparing the peak areas of the standard (concentration 1.0 mg/mL) and the tested sample."}, "[5]": {"test_system": "HepG2 human liver carcinoma cells", "experiment": "MTT cytotoxicity (hepatotoxicity) on HepG2", "format": "cell-based", "description": "as §1"}, "[6]": {"test_system": "Caco-2 cells", "experiment": "Caco-2 cell monolayer permeability", "format": "in vitro ADME, human", "description": "The MultiScreen Caco-2 (ATCC cat. # HTB-37) test system (Millipore, St. Charles, MO, USA) was used to study the transport through a cell monolayer, according to the manufacturer’s instructions. Briefly, a study of transport from the apical membrane to the basolateral (A-B) area and in the opposite direction (B-A) was carried out on a 21-day culture of Caco-2 at a 1 µM concentration of the tested compound for 2 h. Monolayer integrity was verified by measuring electrical resistance (TEER) using a Millicell-ERS instrument. A TEER value of at least 3 KOhm/well was determined to be acceptable."}, "[7]": {"settings": "read-out: Solubility in water, mass concentration"}, "[8]": {"settings": "read-out: Solubility in water, molar concentration"}, "[9]": {"settings": "Caco-2, first value: A-B / apical"}},
  "note": "Where two headings read alike, the source gives them in different places.",
  "data": [
    {"compound": "CCOC(=O)c1[nH]c2cc(F)ccc2c1/N=N/N(C)CCN(C)C", "note": "[BX-SI044, Ethyl (E)-3-(3-(2-(dimethylamino)ethyl)-3-methyltriaz-1-en-1-yl)-6-fluoro-1H-indole-2-carboxylate]", "values": [
      {"measurement": "Selectivity Index", "setting": "[1]", "value": 27},
      {"measurement": "MIC Range Against 8 MRSA Strains", "setting": "[2]", "value": "0.25 to 1", "unit": "mg/L"},
      {"measurement": "IC50 HEF", "setting": "[3]", "value": 19, "unit": "mg/L"},
      {"measurement": "Solubility in water, mass concentration", "setting": "[4]", "value": 0.01755, "unit": "mg/mL"},
      {"measurement": "IC50 HepG2", "setting": "[5]; 24 h", "value": 13, "unit": "mg/L"}
    ]},
    {"compound": "CCOC(=O)c1[nH]c2cc(F)ccc2c1/N=N/N1CCCN(C)CC1", "note": "[BX-SI039, Ethyl (E)-6-fluoro-3-((4-methyl-1,4-diazepan-1-yl)diazenyl)-1H-indole-2-carboxylate]", "values": [
      {"measurement": "Selectivity Index", "setting": "[1]", "value": 20},
      {"measurement": "MIC Range Against 8 MRSA Strains", "setting": "[2]", "value": "0.5 to 1", "unit": "mg/L"},
      {"measurement": "MIC", "setting": "[2]; Figure 6, MRSA strain 2", "value": 1, "unit": "mg/L"},
      {"measurement": "MIC", "setting": "[2]; Figure 6, MRSA strain 7", "value": 1, "unit": "mg/L"},
      {"measurement": "MIC", "setting": "[2]; Figure 6, MRSA strain 8", "value": 1, "unit": "mg/L"},
      {"measurement": "MIC", "setting": "[2]; Figure 6, MRSA strain 9", "value": 1, "unit": "mg/L"},
      {"measurement": "MIC", "setting": "[2]; Figure 6, MRSA strain 13", "value": 1, "unit": "mg/L"},
      {"measurement": "MIC", "setting": "[2]; Figure 6, MRSA strain 21", "value": 0.5, "unit": "mg/L"},
      {"measurement": "MIC", "setting": "[2]; Figure 6, MRSA strain 48", "value": 1, "unit": "mg/L"},
      {"measurement": "MIC", "setting": "[2]; Figure 6, MRSA strain 50", "value": 0.5, "unit": "mg/L"},
      {"measurement": "IC50", "setting": "[3]", "value": 19, "unit": "mg/L"},
      {"measurement": "solubility at 5 min", "setting": "[4]; [7]", "value": 0.0331, "unit": "mg/mL"},
      {"measurement": "solubility at 5 min", "setting": "[4]; [8]", "value": 90, "unit": "µM"},
      {"measurement": "IC50", "setting": "[5]; Homo sapiens, HepG2, 24 h", "value": 16, "unit": "mg/L"}
    ]},
    {"compound": "CNC(=C[N+](=O)[O-])NCCSCc1ccc(CN(C)C)o1", "note": "[Ranitidine, ranitidine]", "values": [
      {"measurement": "Papp A-B", "setting": "[6]; Caco-2, 1 µM, 2 h", "value": "1.48 10^-6 sm/s"},
      {"measurement": "Mass balance", "setting": "[6]; [9]", "value": 96, "unit": "%"}
    ]},
    {"compound": "CCOC(=O)c1[nH]c2ccccc2c1/N=N/N1CCC(CCOC)CC1", "note": "[BX-SI016, Ethyl (E)-3-((4-(2-methoxyethyl)piperidin-1-yl)diazenyl)-1H-indole-2-carboxylate]", "values": [
      {"measurement": "MIC Range Against 8 MRSA Strains", "setting": "[2]", "value": ">1", "unit": "mg/L"},
      {"measurement": "IC50", "setting": "[3]", "value": 34, "unit": "mg/L"}
    ]},
    {"compound": "rhodamine", "values": [
      {"measurement": "Asymmetry index", "setting": "[6]; Caco-2", "value": 3.20},
      {"measurement": "Papp A-B", "setting": "[6]; Caco-2, 1 µM, 2 h", "value": "1.14 10^-6 sm/s"},
      {"measurement": "Papp B-A", "setting": "[6]; Caco-2, 1 µM, 2 h", "value": "3.65 10^-6 sm/s"},
      {"measurement": "Mass balance", "setting": "[6]; [9]", "value": 92.1, "unit": "%"},
      {"measurement": "Mass balance", "setting": "[6]; Caco-2, second value: B-A / basolateral", "value": 95.8, "unit": "%"}
    ]},
    {"compound": "CCOC(=O)c1[nH]c2ccccc2c1/N=N/N1CCCN(C)CC1", "note": "[BX-SI005, Ethyl (E)-3-((4-methyl-1,4-diazepan-1-yl)diazenyl)-1H-indole-2-carboxylate]", "values": [
      {"measurement": "MIC Range Against 8 MRSA Strains", "setting": "[2]", "value": 1, "unit": "mg/L"},
      {"measurement": "IC50", "setting": "[3]", "value": 12, "unit": "mg/L"},
      {"measurement": "solubility at 5 min", "setting": "[4]; [7]", "value": 0.0702, "unit": "mg/mL"},
      {"measurement": "solubility at 5 min", "setting": "[4]; [8]", "value": 210, "unit": "µM"}
    ]},
    {"compound": "CCOC(=O)c1[nH]c2ccccc2c1/N=N/N1CCC(C)CC1", "note": "[BX-SI055, Ethyl (E)-3-((4-methylpiperidin-1-yl)diazenyl)-1H-indole-2-carboxylate]", "values": [
      {"measurement": "MIC Range Against 8 MRSA Strains", "setting": "[2]", "value": ">1", "unit": "mg/L"},
      {"measurement": "IC50", "setting": "[3]", "value": 16, "unit": "mg/L"},
      {"measurement": "solubility at 5 min", "setting": "[4]; [7]", "value": 0.00122, "unit": "mg/mL"},
      {"measurement": "solubility at 5 min", "setting": "[4]; [8]", "value": 4, "unit": "µM"}
    ]},
    {"compound": "CCOC(=O)c1[nH]c2ccccc2c1/N=N/N(C)Cc1ccccc1", "note": "[BX-SI003, Ethyl (E)-3-(3-benzyl-3-methyltriaz-1-en-1-yl)-1H-indole-2-carboxylate]", "values": [
      {"measurement": "MIC Range Against 8 MRSA Strains", "setting": "[2]", "value": 1, "unit": "mg/L"},
      {"measurement": "IC50", "setting": "[3]", "value": 3, "unit": "mg/L"},
      {"measurement": "solubility at 5 min", "setting": "[4]; [7]", "value": 0.0296, "unit": "mg/mL"},
      {"measurement": "solubility at 5 min", "setting": "[4]; [8]", "value": 90, "unit": "µM"}
    ]}
  ]
}
